Results published in PMC12313019, “Fibrotic lung ECM upregulates SDC4/integrin-αvβ1 interaction and the interfering peptide SDC4_87-131 and its derivative peptides alleviate pulmonary fibrosis” (Regenerative Biomaterials, 2025).

Key:
[1] = test system: integrin-β1; test: Flow cytometry of integrin-β1 activation (9EG7) in fibroblast; format: cell-based, mouse; details: SDC4_87-131 100 nM, C8 20 nM, 48 h
Experimental: (§1) Decellularized lung ECM (dECM) was prepared as described in previous study. 2 × 10^5 cells/mL NIH3T3 cells (mouse […], purchased from the Stem Cell Bank of the Chinese Academy of Sciences, Shanghai, China) were seeded on the dECM slices attached to the bottom of the culture dish and cultured in DMEM medium containing 0.5% fetal bovine serum (Gibco, Waltham, MA, USA) at 37°C and 5% CO2.
The single cell suspension of mouse lung tissue was obtained by grinding. After the remaining red blood cells were lysed with ACK Lysis Buffer (TBD, NH4CL2009), 1×10^6 cells/100 μL of cells were added with Fixable Viability Stain 780 (BD, #565388). After incubation at room temperature in the dark for 10-15 min, the suspension was washed twice with PBS containing 1%-2% FBS. The FCR antibody TruStain FcX™ PLUS (BD, #156603) was added to the cell suspension at a ratio of 0.25 μL:100 μL and blocked on ice for 10 min. Then, the antibody was incubated at an appropriate concentration and time according to the manufacturer's instructions. Antibodies include CD45 (Biolegend, #157619), CD140a (Thermo Fisher, #25-1401-82), SDC-4 (Sino Biological, #50726-R112-P), SP-C (Bioss, #bs-10067R-FITC) and Integrin-β1 (9Eg7, BD, 553715), and AF647 anti-Rat (CST, #4418S) was used as the secondary antibody. After incubation, cells were washed and resuspended, and detected using LSRFortessaX-20 (BD).

[2] = test system: SDC4/integrin-β1; test: Duolink-PLA, SDC4/integrin-β1 extracellular interaction in fibroblast; format: cell-based, mouse; details: SDC4_87-131 100 nM; with Anti-SDC4(93-121), n=5
Experimental: as §1
Cells or tissue slices were attached to slides, fixed and permeabilized and blocked with Duolink^TM (Merck, MO, USA) blocking buffer. Antibodies against the extracellular domain of SDC4 (5G9, mouse IgG, SCBT #sc-12766), integrin-αv (rabbit IgG, CST #4711) and integrin-β1 (rabbit IgG, CST #34971) were diluted and added to the samples and incubated overnight at 4°C. After washing, PLUS and MINUS (proximity ligation assay, PLA) probes were added to the samples and incubated at 37°C for 1 h. After washing, the samples were sequentially incubated with PLUS and MINUS (PLA) probes, ligation buffer and amplification buffer containing polymerase. Finally, the samples were mounted with in situ mounting medium containing DAPI. Images were acquired using a Leica SP5 confocal microscope (Leica Biosystems, Germany) and quantitative analysis was performed using ImageJ software.

[3] = test system: integrin-αvβ1, FAK/AKT and PKCα/NF-κB pathways in NIH3T3 cells; test: Western blot of signaling proteins in dECM-stimulated fibroblast; format: cell-based, mouse; details: n=3
Experimental: as §1
(§2) 20 mg of lung tissue was extracted with RIPA lysis buffer (Roche International Ltd., Bermuda, USA), and the protein concentration was determined using a BCA protein detection kit (Roche). Protein samples were separated by 10% sodium dodecyl sulfate polyacrylamide gel (SDS-PAGE) electrophoresis and transferred to a PVDF membrane. After blocking, the PVDF membrane was incubated with primary antibodies for α-SMA, Integrin-αV, SDC4, Integrin-β1, p-Smad3, FAK, and p-FAK (CST, #19245, #4711, #12236S, #34971, #9520S, #3285S, and #3284S) at 4°C overnight, followed by incubation with secondary antibodies (CST, #7074P2), development with ECL reagent (SAB), and acquisition of images with a chemiluminescence imaging system (ChemiScope 5600).

[4] = test system: BLM-induced PF, C57BL/6J mice; test: BLM-induced PF in mice: HE, Masson, hydroxyproline; format: in vivo, mouse
Experimental: C57BL/6J mice (male, 8-to 9-week old, 18–22 g, SPF grade) were purchased from Shanghai Slake Laboratory Animal Co., Ltd. [SCXK (Hu) 2022-0004, Shanghai, China]. […] The mice were housed in an SPF environment with 22–25°C, 46–65% humidity and 12 h/12 h light-dark alternation, with free access to water and food. This animal experiment was approved by the Experimental Animal Welfare Ethics Committee of Fujian Medical University (No. FJMU IACUC 2021-0465), and was carried out in accordance with the National Research Council's Guide for the Care and Use of Laboratory Animals.
(§3) After the mice were anesthetized (1% sodium pentobarbital 50 mg/kg was injected intraperitoneally), 150 μL of bleomycin (BLM, 5 mg/mL, BIO-000001) was inhaled into the lungs of the mice by tracheal inhalation instillation. One day later, the mice were randomly divided into model and drug treatment groups, and the mice in the control group were only subjected to saline inhalation.
Based on the dosage of SDC2 fragment peptide and our experimental results (Supplementary Figure S10A and B), the dosage schedule of SDC4_87-131 was set as follows: starting on the third day after BLM inhalation, 1 mg/kg, administered via trachea infusion once every three days. And Anti-SDC4(93-121) 8 mg/kg was administered on the third and tenth days (reference dosage).
Lung tissue samples were paraffin-embedded, then sliced and dewaxed, and HE and Masson staining were performed respectively. After dehydration and sealing, images were collected and analyzed using a microscope.
100 mg of lung tissue was accurately weighed and processed according to the instructions of the hydroxyproline assay kit (Nanjing Jiancheng, Nanjing, China), and the absorbance was measured at a wavelength of 550 nm. The data were expressed as micrograms (µg) of hydroxyproline per mg of dry lung tissue.

[5] = test system: integrin-αvβ1, FAK/AKT, Smad2/3 and PKCα/NF-κB in BLM lung tissue; test: BLM-induced PF in mice: Western blot of lung tissue; format: in vivo, mouse; details: n=3
Experimental: as §3, §2

[6] = test system: cell migration; details: ref [39]; cited from earlier work
Description: SDC4_87-131 is a synthetic peptide of the N87-M131 segment of the extracellular domain of SDC4 (Supplementary Figure S9A). […] Comparing the effects of ... || Syndecans and integrins collaboratively regulate FA formation and cell adhesion. PKCα is known to modulate integrin-mediated FAK phosphorylation and FA assembly. Inhibition of PKCα not only blocks NF-κB activation but also reduces FAK phosphorylation. Conversely, FAK activation can induce NF-κB activity, highlighting a bidirectional crosstalk between the SDC4/PKCα/NF-κB and integrin/FAK pathways.

For “Ac-NHIPERAGSGSQVPTEPKKLEENEVIPKRISPVEESEDVSNKVSM-NH2 [SDC4_87-131]”, the “dECM-PF-induced integrin-β1 activation” value [1] was “significantly inhibited dECM-PF-induced integrin-β1 activation”, the “integrin-β1/SDC4 interaction induced by dECM-PF” value [2] was “significantly reduce” and the “expression of integrin-β1” value ([3]; in vitro vs in vivo PF model) was “only reduced in the in vitro PF model”. For the same substance, the “expression level of integrin-αv” value ([3]; in vitro, 100 nM, 48 h) was “significantly reduced the expression level of integrin-αv”, the FAK/AKT phosphorylation ([3]; in vitro, 100 nM) was “inhibit FAK/AKT phosphorylation activation in both in vitro and in vivo experiments” and the “phosphorylation level of PKCα and nuclear content of NF-κB (p65)” value ([3]; in vitro, SDC4_87-131 100 nM, C8 20 nM, Anti-SDC4(93-121) 100 ng/mL) was “could downregulate”. The “alveolar structural disorders and collagen deposition” value ([4]; SDC4_87-131 1 mg/kg ITD q3d, C8 10 mg/kg IP qd, Anti-SDC4(93-121) 8 mg/kg ITD day 3 and 10, to day 21) was “could alleviate alveolar structural disorders and collagen deposition”, the “difference between treatments (HE, Masson, hydroxyproline)” value ([4]; SDC4_87-131, Anti-SDC4(93-121) and C8 compared) was “no significant difference” and the “expression level of integrin-αv” value ([5]; 1 mg/kg ITD q3d) was “significantly reduced the expression level of integrin-αv”. For the same substance, the “phosphorylation level of PKCα and nuclear content of NF-κB (p65)” value ([5]; SDC4_87-131 1 mg/kg, C8 10 mg/kg, Anti-SDC4(93-121) 8 mg/kg) was “could downregulate”, the FAK/AKT phosphorylation [5] was “inhibit FAK/AKT phosphorylation activation in both in vitro and in vivo experiments” and the “p-Smad2/3 effect vs C8 and Anti-SDC4” value [5] was “not significantly different from C8 and Anti-SDC4”. The p-Smad2/3 protein levels [5] was “reduced p-Smad2/3 protein levels”, the “cell adhesion and migration” value [6] was “reduces cell adhesion and migration” and the cell migration [6] was “can inhibit cell migration comparably to the exogenous full-length SDC4”.
